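Following 48 hours of exposure in 96-well plates, responses at five concentrations were used to interpolate endpoints linearly. At the GI50, growth is halved.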 The source made the active and inactive calls. Cut-off read from the data, not from the text of the source: active = GI50 up to about 1.1 µM and inactive = higher.
Legend:
Experiment in all cases: growth of human tumour cells (NCI), 48 h
CCRF-CEM = test system: CCRF-CEM
COLO 205 = test system: COLO 205
HCC 2998 = test system: HCC 2998
HOP-18 = test system: HOP-18
HOP-62 = test system: HOP-62
IGROV-1 = test system: IGROV-1
K562 = test system: K562
KM12 = test system: KM12
M14 = test system: M14
M19-MEL = test system: M19-MEL
NCI-H23 = test system: NCI-H23
OVCAR-4 = test system: OVCAR-4
RPMI-8226 = test system: RPMI-8226
SF-295 = test system: SF-295
SK-MEL-2 = test system: SK-MEL-2
SK-MEL-5 = test system: SK-MEL-5

Measured: GI50

O=C1Cc2ccccc2N1c1c(Cl)cccc1Cl
inactive: CCRF-CEM 32.9 µM | COLO 205 42.3 µM | HCC 2998 76.7 µM | HOP-18 > 100 µM | HOP-62 > 100 µM | IGROV-1 43.4 µM | K562 21.3 µM | KM12 31.8 µM | M14 71 µM | M19-MEL 40.6 µM | NCI-H23 52 µM | OVCAR-4 48 µM | RPMI-8226 19.6 µM | SF-295 38.4 µM | SK-MEL-2 28.5 µM | SK-MEL-5 32.8 µM

CC/C=C\C/C=C\C/C=C\CCCCCCCC(=O)OCC
inactive: CCRF-CEM > 100 µM | COLO 205 > 100 µM | HCC 2998 > 100 µM | HOP-18 > 100 µM | HOP-62 > 100 µM | IGROV-1 > 100 µM | K562 > 100 µM | KM12 > 100 µM | M14 > 100 µM | M19-MEL > 100 µM | NCI-H23 > 100 µM | OVCAR-4 > 100 µM | RPMI-8226 70.6 µM | SF-295 > 100 µM | SK-MEL-2 > 100 µM | SK-MEL-5 > 100 µM

CCc1cccc(CC)c1NC1=CC(=O)C(=O)c2ccccc21
inactive: CCRF-CEM > 100 µM | COLO 205 > 100 µM | HCC 2998 15 µM | HOP-18 21.2 µM | HOP-62 19.5 µM | IGROV-1 15.1 µM | K562 59.4 µM | KM12 15.4 µM | M14 13.5 µM | M19-MEL 4.97 µM | NCI-H23 1.49 µM | OVCAR-4 13.7 µM | RPMI-8226 40.2 µM | SF-295 13 µM | SK-MEL-2 14.6 µM | SK-MEL-5 10 µM

c1ccc(N2CCN(CCCN3CCc4c([nH]c5ccccc45)C3c3cccnc3)CC2)cc1 (stereo unspecified)
inactive: CCRF-CEM 88.3 µM | COLO 205 20.8 µM | HCC 2998 40.4 µM | HOP-18 > 100 µM | HOP-62 > 100 µM | IGROV-1 > 100 µM | K562 23.6 µM | KM12 51.4 µM | M14 20.2 µM | M19-MEL > 92 µM | NCI-H23 > 100 µM | OVCAR-4 98.9 µM | RPMI-8226 76.2 µM | SF-295 > 100 µM | SK-MEL-2 > 100 µM | SK-MEL-5 > 70.3 µM

COC(=O)CCC(=O)CC(=O)C1=NS(=O)(=O)c2nc(S(N)(=O)=O)c(Cl)cc2N1
inactive: CCRF-CEM 45 µM | COLO 205 > 100 µM | HCC 2998 > 100 µM | HOP-18 > 100 µM | HOP-62 > 100 µM | IGROV-1 > 100 µM | K562 > 100 µM | KM12 > 100 µM | M14 > 100 µM | M19-MEL > 100 µM | NCI-H23 > 100 µM | OVCAR-4 > 100 µM | RPMI-8226 > 100 µM | SF-295 > 100 µM | SK-MEL-2 > 100 µM | SK-MEL-5 > 100 µM

CCOC(=O)Nc1ccc(S(=O)(=O)OC)cc1.CCOC(=O)Nc1ccc(S(=O)(=O)OC)cc1.Cc1cn(C2CC(O)C(CO)O2)c(=O)[nH]c1=O
inactive: CCRF-CEM 87.1 µM | COLO 205 > 100 µM | HCC 2998 > 100 µM | HOP-18 > 100 µM | HOP-62 > 100 µM | IGROV-1 > 100 µM | K562 34.2 µM | KM12 > 100 µM | M14 > 100 µM | M19-MEL 49.8 µM | NCI-H23 > 100 µM | OVCAR-4 86.3 µM | RPMI-8226 36.5 µM | SF-295 > 100 µM | SK-MEL-2 > 100 µM | SK-MEL-5 > 100 µM

CC(C)(C1=NC(C(C)(C)C)CO1)C1=N[C@@H](C(C)(C)C)CO1 (stereo partly specified)
inactive: CCRF-CEM > 100 µM | COLO 205 > 100 µM | HCC 2998 > 100 µM | HOP-18 > 100 µM | HOP-62 > 100 µM | IGROV-1 > 100 µM | K562 > 100 µM | KM12 > 100 µM | M14 > 100 µM | M19-MEL > 100 µM | NCI-H23 > 100 µM | OVCAR-4 > 100 µM | RPMI-8226 > 100 µM | SF-295 > 100 µM | SK-MEL-2 > 100 µM | SK-MEL-5 > 100 µM

C/C(=N\NC(=S)Nc1ccc(C(=O)O)cc1)c1ccccn1
inactive: CCRF-CEM 17.4 µM | COLO 205 18.4 µM | HCC 2998 15 µM | HOP-18 24.7 µM | HOP-62 30.5 µM | IGROV-1 31.8 µM | K562 40.1 µM | KM12 25.5 µM | M14 15.1 µM | M19-MEL 20.1 µM | NCI-H23 36.9 µM | OVCAR-4 15.1 µM | RPMI-8226 29.8 µM | SF-295 40.4 µM | SK-MEL-2 17.6 µM | SK-MEL-5 16.9 µM

CC(C)COC(=O)N1N=NC2C3CC(=O)C(O3)C21 (stereo unspecified)
inactive: CCRF-CEM > 100 µM | COLO 205 > 100 µM | HCC 2998 > 100 µM | HOP-18 > 100 µM | HOP-62 > 100 µM | IGROV-1 > 100 µM | K562 > 100 µM | KM12 > 100 µM | M14 > 100 µM | M19-MEL > 100 µM | NCI-H23 > 100 µM | OVCAR-4 > 100 µM | RPMI-8226 > 100 µM | SF-295 > 100 µM | SK-MEL-2 > 100 µM | SK-MEL-5 > 100 µM

N/N=c1\c2ccccc2c2ccc3c4ccccc4/c(=N\N)c3c12
inactive: CCRF-CEM > 100 µM | COLO 205 > 100 µM | HCC 2998 > 100 µM | HOP-18 > 100 µM | HOP-62 > 100 µM | IGROV-1 > 100 µM | K562 > 100 µM | KM12 > 100 µM | M14 > 100 µM | M19-MEL > 100 µM | NCI-H23 > 100 µM | OVCAR-4 > 100 µM | RPMI-8226 > 100 µM | SF-295 > 100 µM | SK-MEL-2 > 100 µM | SK-MEL-5 > 100 µM

CN1C=C(C(N)=O)Cc2ccsc21
inactive: CCRF-CEM > 100 µM | COLO 205 > 100 µM | HCC 2998 > 100 µM | HOP-18 > 100 µM | HOP-62 > 100 µM | IGROV-1 > 100 µM | K562 > 100 µM | KM12 > 100 µM | M14 > 100 µM | M19-MEL > 100 µM | NCI-H23 > 100 µM | OVCAR-4 > 100 µM | RPMI-8226 > 100 µM | SF-295 > 100 µM | SK-MEL-2 > 100 µM | SK-MEL-5 > 100 µM
